Literature values, collected in patent EP0726072A2, “Composition for the treatment of hypertension and congestive heart failure, containing an angiotensin II antagonist and an endopeptidase inhibitor” (BRISTOL-MYERS SQUIBB COMPANY, priority 1995, dated 1996).

Tested on: cardiomyopathic hamsters
Details: 30 µmol/kg, i.v.; within 90 minutes; previously shown in this model; cited from earlier work

O=C(O)CCNC(=O)C(CS)Cc1ccccc1 (racemic) [SQ 28603, (±)-N-[2-(mercaptomethyl)-1-oxo-3-phenylpropyl]-β-alanine]
plasma atrial natriuretic peptide concentration: doubling
